Test results reported in patent US5840745A, “Hydrosoluble 3-arylidene-2-oxindole derivatives as tyrosine kinase inhibitors” (Pharmacia S. p. A., priority 1995, dated 1998).
Structures can show the parent of a compound that is named as a salt.

Columns and labels:
[1] = biological target: p45 v-abl tyrosine kinase; assay: in vitro p45 v-abl kinase assay ((Val^5)-Angiotension II phosphorylation); type: biochemical, Abelson murine leukaemia virus; details: 40 ng purified abl-kinase; peptide (2 Mm) and ATP (50 μM); 30° C., pH 8.0; triplicated determinations; read-out: IC50 v-abl, inhibition of p45 v-abl kinase
Protocol: p45 v-abl Kinase Purification
The enzyme used in our test was the p45 v-abl tyrosine kinase which represents the catalytic domain of the Abelson tyrosine kinase (isolated from the Abelson murine leukaemia virus). The p45 v-abl kinase was produced and isolated as described by Wang et al. in J. Biol. Chem. 260, 64 (1985) and by Ferguson et al. in J. Biol. Chem. 260, 3652 (1985) and in Biochem. J. 257, 321 (1989).
(Val^5)-Angiotension II phosphorylation was performed by incubation with 40 ng of purified abl-kinase and (γ-^32 p)-ATP, in 50 μl of buffer containing Tris-HCl 25 mM, pH 8.0, MgCl2 10 mM and dithiothreitol 0.1 mM (kinase buffer). The reaction mixture was incubated for the indicated time at 30° C. and the reaction stopped by adding 50 μl of 5% trichloroacetic acid. After a brief incubation on ice, tubes were centrifuged. The supernatants were spotted on phosphocellulose paper squares (Whatman P-81) and washed extensively in acetic acid. The radioactivity bound to dried phosphocellulose squares was measured in a liquid scintillation counter. IC50 values were calculated from triplicated determinations of each experimental point. Each inhibitor was tested at concentrations ranging from […] in the presence of fixed concentrations of peptide (2 Mm) and ATP (50 μM). […]

[2] = tested on: K562 cells (human chronic myeloid leukemia); assay: K562 cell growth inhibition assay; type: cell-based; details: 72 h, 10000 cells/well, cell count versus untreated control cells
Protocol: K562 Cell Growth Inhibition Assay
K562 cells, a human myelogenous leukemia cell line, were seeded into a 24 wells tissue culture plate (Falcon 3047) (10000/well) in the presence of increasing concentrations of the compounds. After 72 h, cells were harvested and were counted using a cell counter (Coulter Counter--ZM). The percent of inhibition was evaluated in respect to the untreated control cells.
The inhibitory activity data for two representative compounds according to the present invention, obtained both in the in vitro p45 v-abl kinase assay and the in vivo human chronic myeloid leukemia K562 cell growth inhibition assay described above, are set out in the following Table I.

Structure (SMILES) | IC50 [1] | IC50 [2]
COc1ccc2[nH]cc(C=C3C(=O)Nc4ccc(NC(=O)CCN5CCCCC5)cc43)c2c1 [5-(3-piperidinopropionylamino)-3-(5-methoxyindol-3-ylmethylene)-2-oxindole.HCl] | 1.73 µM | 3.7 µM
CCOC(=O)c1ccc2c(c1)C(=Cc1c[nH]c3ccc(OC)cc13)C(=O)N2 [5-carboethoxy-3-(5-methoxyindol-3-ylmethylene)-2-oxindole] | 1.99 µM | 2.34 µM
